Legend:
ODC = settings: tape-stripped mouse epidermis; M. Connor and N. Lowe 1983; cited from earlier work
humans = settings: cited from earlier work
keratinocytes = assay: Inhibition of DNA synthesis in neonatal mouse keratinocyte cultures (3H-thymidine; In Vitro Assay); assay type: cell-based, mouse (neonatal balb/c); settings: daily drug for three days; FIG. 2
From the text: (§1) Tape-stripping mouse epidermis is quick and convenient method of inducing ODC activity that avoids the necessity of handling carcinogens. M. Connor and N. Lowe (J. Invest. Dermatol 43, 5174, 1983) have studied the ability of retinoids to inhibit ODC. […] In vitro methods have also been useful in determining the anti-hyperproliferative activity of drugs. C. Marcelo and J. Tomich (J. Invest. Dermatol. 81, 64s, 1983) have shown that neonatal mouse keratinocyte cultures can be used to identify drugs that inhibit DNA synthesis. More recently, R. Weiss, Eichner, R. and Sunn, T. T, J. Cell Biol., 98: 1397-1406, (1984) have shown that epidermal cultures are in fact, a model of epidermal hyperproliferation and therefore a good model for testing drugs that inhibit hyperporliferation.
Keratinocytes from 1-2 day old neonatal balb/c mice were used. Cells were plated in 35 mm culture dishes in M199 medium containing 10% FCS and incubated at 37° C. in 5% CO2. Cells were allowed to reach confluency at which time 0.01, 0.1, 1.0, 10 and 20 μM manoalide was added in DMSO. Fresh media and drug were added each day to culture for three days. On the fourth day cells were pulsed with ^3 H-thymidine (1 µCi/ml) to determine how much manoalide inhibited DNA syntheses (CPM/μg DNA).

[1] = test system: ornithine decarboxylase (ODC); assay: Tape-stripped epidermal ODC activity in female hairless mice (In Vivo Assay); set-up: species or system mouse (female hairless mice)
From the text: as §1
Female hairless mice were tape-stripped and ODC activity determined according to the method of M. Connor and N. Lowe (J. Invest. Dermatol. 43, 5174, 1983).
**50 mg/kg; IP, 30 min before tapestripping

| Compound | inhibition of ODC (ODC) | therapeutic activity in humans (humans) | inhibition of keratinocyte DNA synthesis (keratinocytes) | % Inhibition (ODC) ([1]; 50 mg/kg, IP, 30 min before tapestripping, p < .05) | ODC ([1]; 50 mg/kg, IP, 30 min before tapestripping, vehicle (soybean oil) 6.1 ± 1.2) | inhibition of tape-stripped ODC after systemic administration ([1]; systemic administration) |
| --- | --- | --- | --- | --- | --- | --- |
| CC1=C(/C=C/C(C)=C/C=C/C(C)=C/C(=O)O)C(C)(C)CCC1 [Trans-retinoic acid] | active at inhibiting ODC | therapeutically active in humans |  |  |  |  |
| CCOC(=O)/C=C(C)/C=C/C=C(C)/C=C/c1c(C)cc(OC)c(C)c1C [etretinate] | active at inhibiting ODC | therapeutically active in humans |  |  |  |  |
| CC1=C(/C=C/C(C)=C/C=C/C(C)=C\C(=O)O)C(C)(C)CCC1 [13-cis retinoic acid] | active at inhibiting ODC | therapeutically active in humans |  |  |  |  |
| CC1=C(CC/C(C)=C/CCC2=CCC(C3=CC(=O)OC3O)OC2O)C(C)(C)CCC1 (stereo not shown) [Manoalide] |  |  | inhibit keratinocyte DNA synthesis in a dose related fashion | 54% | 2.8 ± 0.6 nmoles ^14 CO2 (mg protein/mg protein/hr) | can also inhibit tape-stripped ODC |

Source: patent publication US4786651A, “Treatment of cutaneous hyperproliferative dermatoses with manoalide” (Allergan, Inc., priority 1986, dated 1988)
